Results taken from ChEMBL document CHEMBL5316314, “Structure-Activity Relationship Studies of Antimalarial Plasmodium Proteasome Inhibitors─Part II” (J Med Chem, 2023).

Test: Kinetic solubility of compound at pH 6.8
Assay type: physicochemical
Details: buffer

Compound | Kinetic_solubility [µg/mL]
CC(=O)N[C@H]1Cc2cccc(c2)Oc2cccc(c2)C[C@@H](C(=O)NCC(F)(F)F)NC(=O)[C@H](CCc2ccccc2)NC1=O | < 1.4
O=C(NCC(F)(F)F)[C@@H]1Cc2cccc(c2)Oc2cccc(c2)C[C@H](N2CCCC2=O)C(=O)N[C@@H](CCN2CCC(F)(F)CC2)C(=O)N1 | > 140
C[C@@H](NC(=O)[C@@H]1Cc2cccc(c2)Oc2cccc(c2)C[C@H](N2CCCC2=O)C(=O)N[C@@H](CCN2CCCCC2)C(=O)N1)C1CC1 | > 140
Cn1cc(CNC(=O)[C@@H]2Cc3cccc(c3)Oc3cccc(c3)C[C@H](N3CCCC3=O)C(=O)N[C@@H](CCN3CCCCC3)C(=O)N2)cn1 | > 150
CC(=O)N[C@H]1Cc2cccc(c2)Oc2cccc(c2)C[C@@H](C(=O)NCC(F)(F)F)NC(=O)[C@H](CCC(F)(F)F)NC1=O | < 1.2
Cn1cc(CNC(=O)[C@@H]2Cc3cccc(c3)Oc3cccc(c3)C[C@H](N3CCCS3(=O)=O)C(=O)N[C@@H](CCN3CCCCC3)C(=O)N2)cn1 | > 140
O=C(NCC(F)(F)F)[C@@H]1Cc2cccc(c2)Oc2cccc(c2)C[C@H](N2CCOC2=O)C(=O)N[C@@H](CCN2CCCCC2)C(=O)N1 | 65
O=C(NC1CCCC1)[C@@H]1Cc2cccc(c2)Oc2cccc(c2)C[C@H](N2CCCC2=O)C(=O)N[C@@H](CCN2CCCCC2)C(=O)N1 | > 140
O=C(NCC1CC1)[C@@H]1Cc2cccc(c2)Oc2cccc(c2)C[C@H](N2CCCC2=O)C(=O)N[C@@H](CCN2CCCCC2)C(=O)N1 | > 130
CCC[C@@H]1NC(=O)[C@@H](NC(C)=O)Cc2cccc(c2)Oc2cccc(c2)C[C@@H](C(=O)NCC(F)(F)F)NC1=O | < 1.9
CC1(CNC(=O)[C@@H]2Cc3cccc(c3)Oc3cccc(c3)C[C@H](N3CCCC3=O)C(=O)N[C@@H](CCN3CCCCC3)C(=O)N2)CC1 | > 130
O=C(NC1CCCC1)[C@@H]1Cc2cccc(c2)Oc2cccc(c2)C[C@H](N2CCCS2(=O)=O)C(=O)N[C@@H](CCN2CCOCC2)C(=O)N1 | > 130
CC(=O)N[C@H]1Cc2cccc(c2)Oc2cccc(c2)C[C@@H](C(=O)NCC(F)(F)F)NC(=O)[C@H](CC(C)C)NC1=O | < 1.4
COC[C@@H]1NC(=O)[C@@H](NC(C)=O)Cc2cccc(c2)Oc2cccc(c2)C[C@@H](C(=O)NCC(F)(F)F)NC1=O | 14
CN1C(=O)[C@H](CCc2ccccc2)N(C)C(=O)[C@@H](N2CCCC2=O)Cc2cccc(c2)Oc2cccc(c2)C[C@H]1C(=O)NCC(F)(F)F | 4
O=C(NCC(F)(F)F)[C@@H]1Cc2cccc(c2)Oc2cccc(c2)C[C@H](N2CCCC2=O)C(=O)N[C@@H](Cc2ccccc2)C(=O)N1 | 22
Cn1cc(CNC(=O)[C@@H]2Cc3cccc(c3)Oc3cccc(c3)C[C@H](NS(C)(=O)=O)C(=O)N[C@@H](CCN3CCCCC3)C(=O)N2)cn1 | > 140
O=C(NCC1CC1)[C@@H]1Cc2cccc(c2)Oc2cccc(c2)C[C@H](N2CCCC2=O)C(=O)N[C@@H](CCN2CCOCC2)C(=O)N1 | > 130
O=C(NCC(F)(F)F)[C@@H]1Cc2cccc(c2)Oc2cccc(c2)C[C@H](N2CCCC2=O)C(=O)N[C@@H](CCc2ccccc2)C(=O)N1 | 3.8
C[C@H](NC(=O)[C@@H]1Cc2cccc(c2)Oc2cccc(c2)C[C@H](N2CCCC2=O)C(=O)N[C@@H](CCN2CCCCC2)C(=O)N1)C1CC1 | > 120
CN1C(=O)[C@H](CCc2ccccc2)NC(=O)[C@@H](N2CCCC2=O)Cc2cccc(c2)Oc2cccc(c2)C[C@H]1C(=O)NCC(F)(F)F | 4.2
O=C(NCC(F)(F)F)[C@@H]1Cc2cccc(c2)Oc2cccc(c2)C[C@H](N2CCCC2=O)C(=O)N[C@@H](CCN2CCCCC2)C(=O)N1 | > 140
O=C(NCC(F)(F)F)[C@@H]1Cc2cccc(c2)Oc2cccc(c2)C[C@H](N2CCCC2=O)C(=O)N[C@@H](CCN2CCC[C@@H](F)C2)C(=O)N1 | > 130
